Results reported in patent US20110251258A1, “RNAI CONSTRUCTS AND USES THEREOF” (RXi Pharmaceuticals Corporation, priority 2008, published 2011).

Experiments:
PPIB = details: for PPIB gene silencing activity (in words): transfection assay as in Example I; for EC50: PPIB expression, HEK293, 48 hours after transfection, dose response with RISC-Free filler; for relative expression of PPIB remaining after transfection: HEK293, 48 hour incubation, even at 10 nM, compared to negative control 10837 and UTC; for activity at sub-nano molar concentrations / target gene expression at about 0.1 nM: HEK293, with RISC-Free filler; for EC50 fold higher than that of the 25-mer dsRNA 10460: from the EC50 table of Example III
Excerpt: Positive and negative controls were also included. As shown and described in FIG. 4, construct prepared from single-stranded polynucleotide 10837 (SEQ ID NO: 6) was used as a negative control. […] This structure, denoted as construct 10460 (5′P-mCmUmCm[…]mAmAmAmA-3′, SEQ ID NO: 7) in this example, contains 2′-O-methyl modified bases on 4 of the outermost positions at both ends of the sequence.
(§1) All constructs were transfected into HEK293 cells using the LIPOFECTAMINE™ RNAiMAX reagent (Invitrogen Corp., Carlsbad, Calif.) according to manufacture's instructions. In brief, RNA was diluted to a 12× concentration and then combined with a 12× concentration of LIPOFECTAMINE™ RNAiMAX to complex. The RNA and transfection reagent were allowed to complex at room temperature for 20 minutes to yield a 6× concentration. While complexing, HEK293 cells were washed, trypsinized and counted. The cells were diluted to a concentration recommended by the manufacturer which was at 1×10^5 cells/ml. When RNA has completed complexing with the RNAiMAX transfection reagent, 20 μl of the complexes were added to the appropriate well of the 96-well plate in triplicate. Cells were added to each well (100 μl volume) to make the final cell count per well at 1×10^4 cells/well. The volume of cells diluted the 6× concentration of complex to 1× which was equal to 50, 25, or 10 nM. Cells were incubated for 48 hours under normal growth conditions. After 48 hour incubation, cells were lysed and gene silencing activity was measured using the Panomics […]™ assay which employs bDNA hybridization technology. The assay was carried out according to manufacturer's instructions.
Active RNAi construct stocks at 100 or 10 μM were used to make a 3 μM working dilution in RNA Buffer (1:33.333 dilution) by mixing 30 μl of a 10 μM stock+70 μl RNA Buffer. Diluted RNAi compound plates were prepared in a 96 well plate of 0.2 mL PCR tubes as follows:
a. 50 nM Condition (dilute RNA compound to 12× or to 600 nM in OptiMEM, Reduced Serum Medium, Invitrogen Corp., Carlsbad, Calif.): • i. Add 80 μl of OptiMEM to each well • ii. Add 20 μl of working stock RNAi compound (3 μM) to each well with OptiMEM
b. 25 nM Condition (dilute RNA to make 12× or to 300 nM in OptiMEM): • i. Add 50 μl of OptiMEM to each well • ii.
c. 10 nM Condition (dilute RNA compound to 12× or to 120 nM in OptiMEM): • i. Add 30 μl of OptiMEM to each well • ii.
A bulk amount of diluted RNAiMAX and LIPOFECTAMINE™ were made as follows:
a. 1,470 μl Opti-MEM+30 μl RNAiMAX
c. Combine RNAiMAX and Opti-MEM, Lipofectamine and Opti-MEM, mix gently.
Diluted RNAiMAX or LIPOFECTAMINE™ (35 μl each) was added to each 0.2 ml PCR well. Then, 35 μl of diluted RNAi compound from the RNA plate (above) was also added to each well. Each well contained enough for duplicates at a given dose. Each reaction mixture was gently mixed by pipetting up and down 3 times. The mixture was allowed to complex for at least 15 minutes at room temperature. Meanwhile, a suspension of cells at 1×10^5 cells/ml was prepared. After 15 minutes, 20 μl of complexed RNAi was added to each tissue-culture treated 96-well using a multi-channel pipettor. The prepared cell suspension was added to each reaction at a final volume of 1×10^4 cells (100 μl of cell suspension) and allowed to incubate for 48 hours at 37° C., 10% CO2.
Constructs 10460 (SEQ ID NO: 7, see above, a 25-bp double-stranded RNA with blunt ends) and 10167.2 (a 21-bp double-stranded RNA) were included as positive controls. Untransfected control (UTC) was included as a negative control. Transfections were performed as in Example I or according to the manufactures' recommendation. Each construct (except for the UTC) was transfected at a final concentration of about 50 nM, 25 nM, 10 nM, 5 nM, and 1 nM.
The RISC-Free filler is a commercially available control.

MAP4K4 = test system: MAP4K4
Protocol: as §1

Substance	PPIB gene silencing activity (in words) (PPIB)	PPIB silencing potency compared with another construct (PPIB)	EC50 (PPIB) [nM]	further results
SS: G.G.A.A.A.G.A.C.U.G.U.U.C.C.A.A. A.A.A AS: U.U.U.U.U.G.G.A.A.C.A.G.U. [compound 12000, reference compound]	essentially inactive			
SS: P.mC.mU.mC.mU.U.C.G.G.A.A.A.G. A.C.U.G.U.U.C.C.A.mA.mA.mA.mA AS: U.U.U.U.U.G.G.A.A.C.A.G.U.C.U.U. U.C.C.G.A.A.G.A.G [compound 10460, reference compound]		more potent than the dsRNA construct 10463	0.014	
U.A.G.A.C.U.U.C.C.A.C.A.G.A.I.I.U. I.I.A.A.G.U.C.U.A [compound 11993]				MAP4K4 gene silencing activity (in words) (MAP4K4): ineffective
U.U.A.C.A.C.G.A.U.G.G.A.A.U.U.U. G.C.U.C.C.A.U.C.G.U.G.U.A.A [compound 12004]		less effective		
U.U.A.C.A.C.G.A.U.G.G.A.A.U.U.U. G.C.U.U.U.C.C.A.U.C.G.U.G.U.A.A. [compound 12003]		less effective		
U.U.U.U.U.G.G.A.A.C.A.G.U.C.U.U. U.C.C.A.C.U.G.U.U.C.C.A.A.A.A.A [compound 11975]		more potent that those designed based on the 10463 sequence (12003 and 12004)		
U.U.U.U.U.G.G.A.A.C.A.G.U.C.U.U. U.C.C.U.G.U.U.C.C.A.A.A.A.A [compound 11976]		more potent that those designed based on the 10463 sequence (12003 and 12004)		
UUUUUGGAACAGUCUUUCCACUGUUCCAAAAA [compound 10833]	can inhibit PPIB expression		0.599	relative expression of PPIB remaining after transfection (PPIB): dramatically decrease PPIB expression; activity at sub-nano molar concentrations (PPIB): remained partially active; target gene expression at about 0.1 nM (PPIB): at least negative control level; EC50 fold higher than that of the 25-mer dsRNA 10460 (PPIB): about 60 fold
UUUUUGGAACAGUCUUUCCUGUUCCAAAAA [compound 10834]	can inhibit PPIB expression		1.54	relative expression of PPIB remaining after transfection (PPIB): dramatically decrease PPIB expression; activity at sub-nano molar concentrations (PPIB): remained partially active; target gene expression at about 0.1 nM (PPIB): at least negative control level; EC50 fold higher than that of the 25-mer dsRNA 10460 (PPIB): about 110 fold
